Entries after “also recorded” stand apart in the source; their conditions may differ.
Assays:
[1] = test system: VEGF-stimulated cancer cell lines; test: VEGF-stimulated tumor cell proliferation, panel of cancer cell lines; format: cell-based; settings: in vitro
[2] = test system: MIAPAC-2 pancreatic cancer cells; test: FGF2-induced proliferation of MIAPAC-2 pancreatic cancer cells (modified MTS assay); format: cell-based
Experimental: Cell proliferation was determined by a modified MTS assay with […] 96® Aqueous One Solution Reagent (Promega, Madison, Wis.). A2780 ovarian cancer cells, MIAPAC-2 pancreatic cancer cells, or GEO colon cancer cells were seeded on 96-well flat-bottomed tissue culture plates (Becton Dickinson, San Jose, Calif.) at a concentration of 3×10^3 cells/well in RPMI 1640 with 1% fetal bovine serum at 37° C. in 5% carbon dioxide/95% air in the presence of 100 units/ml penicillin, 100 μg/ml streptomycin and allowed to adhere to the plate overnight. Then the cells were incubated in the presence of each concentration of 0 (control), 0.3, 0.6, 1.25, 2.5, 5, 10 ng/ml of FGF2 or VEGF for another 72 hours at 37° C. in a humidified atmosphere of 5% CO2 in air. After treatment, 20 μl of […] 96® Aqueous One Solution Reagent was dropped into each well of plates. After 180 minutes incubation, the optical densities (OD) of these samples were directly measured using SPECTRAMAX® plus (Molecular Device, California) and reference wavelength of 490 nm. The OD of control samples was regarded as 100. Each condition was performed with 4 wells and experiment was repeated twice.

[3] = test system: advanced or metastatic solid tumors; test: Phase 1 clinical study CA 182-002: tumor response and PFS by FGF2 status; format: in vivo, human; settings: for patients with progressive disease / patients with a partial response or stable disease: after 56 days of treatment; for patients with a partial response or stable disease: WHO criteria; for median increase in tumor size from baseline: after two cycles of treatment (approximately 56 days)
From the text: All patients gave informed consent for the clinical trial and for this study, which was approved by the appropriate institutional review boards. Inclusion criteria include ECOG 0-1 (S. Javerzat et al., Trends Mol. Med., 8:483 (2002)), adequate bone marrow and hepatic function, and having tumor tissue block or 20 to 30 unstained slides of the initial biopsy available. Exclusion criteria included prior exposure to vascular endothelial growth factor (VEGF) inhibitors, presence of cardiovascular disease, thromboembolism, or bleeding in the last 6 months. All patients enrolled in the clinical trial had previously failed primary and secondary chemotherapy courses. […] Patients' response was measured by quantifying tumor size by contrast enhanced tomography (CT).
Tumor response was assesses using the modified WHO tumor response criteria. Lesions were evaluated by computed tomography (CT). Lesions were bidimensional and had at least one diameter of >2 cm on standard CT and >1 cm on spiral CT. For bidimensional measurements, the second diameter was perpendicular to the longest diameter. The area of lesion was calculated by multiplying the longest diameter by the greatest perpendicular diameter.
Tumor blocks were sectioned at 4 μm. Slides were de-paraffined and rehydrated in the LEICA® ST5020 Multistainer. Antigen retrieval was carried out by heating slides with Citra Plus Antigen retrieval solution (BioGenex, Cat # HK080-9K) in a BIOGENEX® EZ-Retriever Microwave at 95° C. for 15 minutes. The slides were then cooled at room temp for 5 minutes, and rinsed with distilled water for three times (˜1 minute each). Slides were immunostained in the i6000 Automated Staining System (BioGennex) using the following conditions: blocking with peroxide block (DAKO, Cat# K4007) for 5 minutes, followed by 5% goat serum for 30 mins, primary antibodies rabbit anti-fibroblast growth factor-2 (FGF-2) (Abcam Cat# #16828) 1:25 or rabbit immunoglobulin G (Rabbit IgG, LabVision, Cat# NC-100-P) 5 μg/ml were added and incubated for 1 hour, followed by Peroxidase Anti-Rabbit IgG (H+L) secondary antibody (Vector, Cat# PI-1000) at 1:200 dilution for 45 minutes. Chromogen substrate DAB (DAKO, Cat# K4007) was added and incubated for 5 minutes. Slides were counterstained with hematoxyline (DAKO cat#53309) for 1 minute. The stained slides were dehydrated and coverslipped in the LEICA® ST5020 Multistainer and assessed by a board-certified pathologist, without knowledge of patients' medical status.
To compare response rates between the FGF-2(+) and FGF-2(−) groups, a Fisher's exact test was used. To test for differences of percent changes from baseline in tumor between FGF-2(+) and FGF-2(−) groups, a non-parametric Wilcoxon rank-sum test was used (since the assumptions on the marginal distributions for the t-statistic were slightly violated for percent change from baseline, and small sample sizes could increase the test's vulnerability to assumption violations). The same method was applied to test for the difference in percent change from baseline of CIV at Day 8 and Day 26 between the two groups. In addition, a Rank-based ANCOVA was used to investigate the effect of the FGF-2 status on the post-baseline tumor volume, adjusted for the baseline tumor volume. All analyses were performed using R (Y. Shing et al., Science., 223:1296 (1984)).

collagen IV (CIV) = test: Plasma collagen IV (CIV) ELISA in patients; format: in vivo, human; settings: for reduction in median CIV levels: regardless of FGF-2 status
Experimental: Plasma collagen IV (CIV) was measured using an enzyme-linked immunosorbent assay (ELISA) kit obtained from Biotrin International, Ltd. (Dublin, Ireland). […] Per the manufacturer's kit insert and instructions, the kit standards, QCs and EDTA plasma patient samples were diluted with conjugate (anti-collagen IV mouse Fab′ conjugated to horseradish peroxidase, containing 30 mg/l Proclin 300 as a preservative). Diluted samples were incubated for 30 minutes in wells coated with a second anti-collagen IV antibody, and then washed 3 times with kit wash buffer (phosphate buffer with Tween 20 and proclin 300 as a preservative. Ready to use TMB substrate was added and incubated for 30 minutes. The reaction was stopped by the addition of 1M H2SO4. The absorbance at 450 nm using 630 nm as a reference was measured using a SPECTRAMAX® plate reader (Molecular Devices, Sunnyvale, Calif.). Softmax Pro 4.8 software was used to generate a 4-parameter logistic (4-PL) curve fit using the CIV kit standards.

[(1R),2S]-2-Aminopropionic acid 2-[4-(4-fluoro-2-methyl-1H-indol-5-yloxy)-5-methylpyrrolo[2,1-f][1,2,4]triazin-6-yloxy]-1-methylethyl ester [brivanib]
effect on tumor cell proliferation in the presence of VEGF [1]: no affect on tumor cell proliferation | effect on FGF2-induced cellular proliferation ([2]; MIAPAC-2 pancreatic cancer cells): potently inhibited; also recorded: inhibits ovarian cancer and pancreatic cancer cell line growth directly | inhibition of FGF2-induced cell growth ([2]; pancreatic cancer cell line MIAPAC-2): > 50% | IC50 ([2]; pancreatic cancer cell line MIAPAC-2, read-out: IC50, FGF2-induced cell growth): < 0.5 µM | tumor shrinkage from baseline, FGF2 staining vs negative staining tumors ([3]; Example 1 analysis of CA 182-002, not statistically significant): tend to have more shrinkage than the negative staining tumors | survival, FGF2 positive vs negative tumors (Kaplan-Meier) ([3]; Example 1 analysis of CA 182-002, p value 0.475): tended to have a survival advantage | Mean change in tumor size (%) (~8 wks) High (≧600 mg) (n = 26) ([3]; FGF2+ patients (n = 24)): 0.9% | Mean change in tumor size (%) (~8 wks) Low (<600 mg) (n = 17) ([3]; FGF2+ patients (n = 24)): 28% | Median PFS (days) High (≧600 mg) (n = 26) ([3]; FGF2+ patients (n = 24)): 107 days | Median PFS (days) Low (<600 mg) (n = 17) ([3]; FGF2+ patients (n = 24)): 71 days | PD, number of patients ([3]; FGF2+ patients (n = 24)): 9 | PR, number of patients ([3]; FGF2+ patients (n = 24)): 2 | Mean change in tumor size (%) (~8 wks) High (≧600 mg) (n = 26) ([3]; FGF2− patients (n = 19)): 24% | Mean change in tumor size (%) (~8 wks) Low (<600 mg) (n = 17) ([3]; FGF2− patients (n = 19)): 71% | Median PFS (days) High (≧600 mg) (n = 26) ([3]; FGF2− patients (n = 19)): 56 days | Median PFS (days) Low (<600 mg) (n = 17) ([3]; FGF2− patients (n = 19)): 54 days | PD, number of patients ([3]; FGF2− patients (n = 19)): 14 | PR, number of patients ([3]; FGF2− patients (n = 19)): 0 | reduction of tumor growth, FGF-2(+) compared with FGF-2(−) patients ([3]; patients with FGF-2(+) tumors): three-fold | patients with progressive disease ([3]; patients with FGF-2(+) tumors): 9 out of 24 | patients with a partial response or stable disease ([3]; patients with FGF-2(+) tumors): 62.5% | median increase in tumor size from baseline ([3]; patients with FGF-2(+) tumors): 1% | patients with progressive disease ([3]; patients with FGF-2(−) tumors): 14 out of 19 | median increase in tumor size from baseline ([3]; patients with FGF-2(−) tumors): 36% | patients with a partial response or stable disease ([3]; patients with FGF-2− tumors): 26.3% | reduction in median CIV levels (collagen IV (CIV); 320 mg, after 8 days): 2.6% | reduction in median CIV levels (collagen IV (CIV); 320 mg, after 26 days): 2.3% | reduction in median CIV levels (collagen IV (CIV); 800 mg, after 8 days): 24% | reduction in median CIV levels (collagen IV (CIV); 800 mg, after 26 days): 31% | COL IV change from baseline (%) (Day 26) (n = 42) (collagen IV (CIV); FGF2+ patients (n = 24)): −30% | COL IV change from baseline (%) (Day 26) (n = 42) (collagen IV (CIV); FGF2− patients (n = 19)): −16% | median decrease of CIV levels from baseline (collagen IV (CIV); patients with FGF2(−) tumors, after 8 days): 4.9% | median decrease of CIV levels from baseline (collagen IV (CIV); patients with FGF-2(+) tumors, after 8 days): 16.1% | median reduction from baseline in CIV levels (collagen IV (CIV); patients with FGF-2(+) tumors, after 26 days): 30.7% | median reduction from baseline in CIV levels (collagen IV (CIV); patients with FGF-2(−) tumors, after 26 days): 4.3%
